From PMC4823954, “From fighting depression to conquering tumors: a novel tricyclic thiazepine compound as a tubulin polymerization inhibitor” (Cell Death & Disease, 2016)

How the values were obtained:
H460 = test: Cell viability assay (sulforhodamine B); assay type: cell-based, human; conditions: Homo sapiens
Protocol: (§1) All biological reagents and solvents were obtained from commercial suppliers and used as recommended. The human NSCLC cell line H460 and P-gp-overexpressing drug-resistant cell line H460TaxR were cultured in RPMI-1640 medium supplemented with 10% fetal bovine serum, 100 units/ml penicillin and […] streptomycin. The NHFB cell line NHFB was cultured in DMEM with the same supplements. All cells were maintained in a 37 °C incubator with 95% humidity and 5% CO2.
(§2) The cell viability was determined using the sulforhodamine B assay.[64] In brief, cells (4000 cells in 100 μl medium) were seeded in 96-well culture plates and incubated for 24 h. The cells were treated with the compounds or with an equal volume (0.1%) of DMSO for 72 h. The cell viability was calculated using the following formula: cell viability=Atreatment/Acontrol. The EC50 values were determined using the Sigma Plot 10.0 software package (Systat Software Inc., San Jose, CA, USA).

H460TaxR = test: Cell viability assay (sulforhodamine B); assay type: cell-based, human; conditions: for Resistance Folds: EC50 in H460TaxR cells divided by EC50 in H460 cells; for EC50: Homo sapiens, H460/TaxR
Protocol: as §1, §2

NHFB = test: Cell viability assay (sulforhodamine B); assay type: cell-based; conditions: Fibroblast; NHFB normal human fibroblasts, 72 h
Protocol: as §1, §2

[1] = toxicity in xenografted mice; conditions: end of experiment, hematoxylin–eosin
Protocol: Five injections of vehicle and TBPT (30 or 60 mg/kg) were administered intravenously at days 1, 3, 5, 7 and 9 (arrows). Four injections of PTX (10 mg/kg) were administered intravenously at days 1, 3, 5 and 7. (a) The tumor volume was measured every other day. When the tumor volume in the solvent-treated group exceeded 1500 mm^3, the experiment was terminated. (b) Blood biochemical and hematological analyses. (c) The body weights of the mice were monitored every other day during the experiments. *P<0.05, Student's t-test with day 0, N=5
Figure 3 Histopathological examination of the major organs from TBPT or PTX-treated mouse tumor at the end of the experiments. The cross-sections of organs were stained with hematoxylin–eosin. […] The scale bars represent 50 μm and are uniform in each column
H460 and H460TaxR cells (5 × 10^6 cells in 100 μl PBS) were injected subcutaneously into the dorsal flank of each mouse. When the tumors reached volumes of 100 mm^3, the mice were divided randomly into four groups. The mice were treated every other day five times with intravenous injections of (1) vehicle (the solvent of TBPT: 60% PBS, 8% Cremophor EL, 8% EtOH, 12% poly propylene glycol and 12% PEG-400), (2) TBPT (30 mg/kg) or (3) TBPT (60 mg/kg). Another group was treated with PTX (10 mg/kg) every other day four times as the positive control. The tumor dimensions and body weights were measured every other day. The tumor volume was calculated according to a standard formula: volume=width^2 × length/2. The experiment was terminated and the mice were killed when the tumor volumes in the solvent-treated group exceeded 1500 mm^3. The mouse organs and blood were collected and used for hematoxylin–eosin staining and serum chemistry assay. TGI rates were assessed using the following formula: TGI=1− (Tt−T0)/(Ct−C0) × 100%. Tt and T0 indicate the tumor volumes of the treated group at days t and 0. Ct and C0 indicate the tumor volumes of the control group at days t and 0, respectively.

H460 xenograft = test: NSCLC xenograft tumor growth inhibition; assay type: in vivo; conditions: H460 xenografted mice; PTX 10 mg/kg i.v., four doses every other day
Protocol: (§3) (a) The tumor volume was measured every other day. […] (b) Blood biochemical and hematological analyses.

H460TaxR xenograft = test: NSCLC xenograft tumor growth inhibition; assay type: in vivo; conditions: H460TaxR xenografted mice; PTX 10 mg/kg i.v., four doses every other day
Protocol: as §3

[2] = H460TaxR(+Rev), Reversan (P-gp inhibitor)

Compound | EC50 (H460; NCI-H460, 72 h, H460 cells, 72 h) | Resistance Folds (H460TaxR) | EC50 (H460TaxR; 72 h, H460TaxR cells) | EC50 (H460TaxR; [2]) | EC50 (NHFB) | EC50 (H460; NCI-H460, H460 cells) | EC50 (H460TaxR; H460TaxR cells) | histopathological examination of the major organs [1] | tumor growth inhibition, TGI (H460 xenograft) | tumor growth inhibition, TGI (H460TaxR xenograft)
COc1cccc2c1C(=O)c1c(O)c3c(c(O)c1C2=O)C[C@@](O)(C(=O)CO)C[C@@H]3O[C@H]1C[C@H](N)[C@H](O)[C@H](C)O1 [DOX, Doxorubicin] | 110 ± 70 nM | 18.6 | 2050 ± 690 nM | 170 ± 100 nM |  |  |  |  |  | 
CC(=O)O[C@H]1C(=O)[C@@]2(C)[C@H]([C@H](OC(=O)c3ccccc3)[C@]3(O)C[C@H](OC(=O)[C@H](O)[C@@H](NC(=O)c4ccccc4)c4ccccc4)C(C)=C1C3(C)C)[C@]1(OC(C)=O)CO[C@@H]1C[C@@H]2O [PTX, paclitaxel] |  | 165.0 | 822 nM | 4.4 ± 2.8 nM | 51 nM | 6 ± 2.1 nM | 990 ± 190 nM | Hepatocyte necrosis | 66.2% | 42.0%
CC[C@]1(O)C[C@H]2CN(CCc3c([nH]c4ccccc34)[C@@](C(=O)OC)(c3cc4c(cc3OC)N(C=O)[C@H]3[C@@](O)(C(=O)OC)[C@H](OC(C)=O)[C@]5(CC)C=CCN6CC[C@]43[C@@H]65)C2)C1 [VCR, Vincristine] |  | 78.4 |  | 9.1 ± 3.3 nM |  | 12.9 ± 5.2 nM | 1010 ± 101 nM |  |  | 
